# Laboratory results: ChEMBL document CHEMBL5143690, “Identification of nitrofuranylchalcone tethered benzoxazole-2-amines as potent inhibitors of drug resistant Mycobacterium tuberculosis demonstrating bactericidal efficacy” (Bioorg Med Chem, 2022)
# Tests used:
# Assay type in all cases: functional
# [1] = tested on: Mycobacterium tuberculosis; assay: Antimycobacterial activity against Mycobacterium tuberculosis H37Rv ATCC 27294 assessed as inhibition of bacterial growth measured after 7 days by resazurin microtitre assay; conditions: H37Rv ATCC 27294, 168 h, time 7 day
# [2] = tested on: Pseudomonas aeruginosa; assay: Antibacterial activity against Pseudomonas aeruginosa ATCC 27853 assessed as reduction in bacterial growth incubated for 16 to 18 hrs by microtiter plate assay; conditions: time 16-18 hrs
# [3] = tested on: Acinetobacter baumannii; assay: Antibacterial activity against Acinetobacter baumannii BAA 1605 assessed as reduction in bacterial growth incubated for 16 to 18 hrs by microtiter plate assay; conditions: time 16-18 hrs
# [4] = tested on: Staphylococcus aureus; assay: Antibacterial activity against Staphylococcus aureus ATCC 29213 assessed as reduction in bacterial growth incubated for 16 to 18 hrs by microtiter plate assay; conditions: time 16-18 hrs
# [5] = tested on: Escherichia coli; assay: Antibacterial activity against Escherichia coli ATCC 25922 assessed as reduction in bacterial growth incubated for 16 to 18 hrs by microtiter plate assay; conditions: time 16-18 hrs
# [6] = tested on: Mycobacteroides abscessus; assay: Antimycobacterial activity against Mycobacterium abscessus ATCC 19977 assessed as inhibition of bacterial growth after 48 hrs by resazurin microtitre assay
# [7] = tested on: Mycobacteroides chelonae; assay: Antimycobacterial activity against Mycobacterium chelonae ATCC 6841 assessed as inhibition of bacterial growth after 48 hrs by resazurin microtitre assay
# [8] = tested on: Mycolicibacterium fortuitum; assay: Antimycobacterial activity against Mycobacterium fortuitum ATCC 6841 assessed as inhibition of bacterial growth after 48 hrs by resazurin microtitre assay
# [9] = tested on: Klebsiella pneumoniae; assay: Antibacterial activity against Klebsiella pneumoniae BAA 1705 assessed as reduction in bacterial growth incubated for 16 to 18 hrs by microtiter plate assay; conditions: time 16-18 hrs
compound,measurement,setting,value
COc1ccc(OC)c(C(=O)/C=C/c2ccc3nccnc3c2)c1,MIC,[1],3.13 µg/mL
CC(=O)N1N=C(c2ccccc2)CC1c1cc(Cl)c2oc(S)nc2c1 (configuration not stated),MIC,[1],1.25 µg/mL
O=C(O)c1ccc(/C=C/C(=O)c2ccc(Nc3nc4ccccc4o3)cc2)cc1,MIC,[2],> 64 µg/mL
same,MIC,[3],> 64 µg/mL
same,MIC,[4],> 64 µg/mL
same,MIC,[5],> 64 µg/mL
same,MIC,[6],> 64 µg/mL
same,MIC,[7],> 64 µg/mL
same,MIC,[1],> 64 µg/mL
same,MIC,[8],> 64 µg/mL
same,MIC,[9],> 64 µg/mL
O=C(/C=C/c1ccc(Cl)cc1Cl)c1ccc(Nc2nc3ccccc3o2)cc1,MIC,[2],> 64 µg/mL
same,MIC,[3],> 64 µg/mL
same,MIC,[4],> 64 µg/mL
same,MIC,[5],> 64 µg/mL
same,MIC,[6],> 64 µg/mL
same,MIC,[7],> 64 µg/mL
same,MIC,[1],> 64 µg/mL
same,MIC,[8],> 64 µg/mL
same,MIC,[9],> 64 µg/mL
O=C(/C=C/c1ccccc1Br)c1ccc(Nc2nc3ccccc3o2)cc1,MIC,[2],> 64 µg/mL
same,MIC,[3],> 64 µg/mL
same,MIC,[4],> 64 µg/mL
same,MIC,[5],> 64 µg/mL
same,MIC,[6],> 64 µg/mL
same,MIC,[7],> 64 µg/mL
same,MIC,[1],> 64 µg/mL
same,MIC,[8],> 64 µg/mL
same,MIC,[9],> 64 µg/mL
COc1ccc(C(=O)/C=C/c2cc(OC)c(OC)c(OC)c2)cc1Nc1nc2ccccc2o1,MIC,[2],> 64 µg/mL
same,MIC,[3],> 64 µg/mL
same,MIC,[4],> 64 µg/mL
same,MIC,[5],> 64 µg/mL
same,MIC,[6],> 64 µg/mL
same,MIC,[7],> 64 µg/mL
same,MIC,[1],64 µg/mL
same,MIC,[8],> 64 µg/mL
same,MIC,[9],> 64 µg/mL
O=C(/C=C/c1ccccc1)c1ccc(Nc2nc3ccccc3o2)cc1,MIC,[2],> 64 µg/mL
same,MIC,[3],> 64 µg/mL
same,MIC,[4],> 64 µg/mL
same,MIC,[5],> 64 µg/mL
same,MIC,[6],> 64 µg/mL
same,MIC,[7],> 64 µg/mL
same,MIC,[1],16 µg/mL
same,MIC,[8],> 64 µg/mL
same,MIC,[9],> 64 µg/mL
CN[C@@H]1[C@H](O[C@H]2[C@H](O[C@H]3[C@H](O)[C@@H](O)[C@H](N=C(N)N)[C@@H](O)[C@@H]3N=C(N)N)O[C@@H](C)[C@]2(O)C=O)O[C@@H](CO)[C@H](O)[C@H]1O [STREPTOMYCIN],MIC,[1],1 µg/mL
COc1cc(/C=C/C(=O)c2ccc(Nc3nc4cc(Cl)ccc4o3)cc2)cc(OC)c1OC,MIC,[2],> 64 µg/mL
same,MIC,[3],> 64 µg/mL
same,MIC,[4],> 64 µg/mL
same,MIC,[5],> 64 µg/mL
same,MIC,[6],> 64 µg/mL
same,MIC,[7],> 64 µg/mL
same,MIC,[1],8 µg/mL
same,MIC,[8],> 64 µg/mL
same,MIC,[9],> 64 µg/mL
O=C(/C=C/c1ccccc1F)c1ccc(Nc2nc3ccccc3o2)cc1,MIC,[2],> 64 µg/mL
same,MIC,[3],> 64 µg/mL
same,MIC,[4],> 64 µg/mL
same,MIC,[5],> 64 µg/mL
same,MIC,[6],> 64 µg/mL
same,MIC,[7],> 64 µg/mL
same,MIC,[1],> 64 µg/mL
same,MIC,[8],> 64 µg/mL
same,MIC,[9],> 64 µg/mL
COc1cc(OC)c(OC)cc1/C=C/C(=O)c1ccc(Nc2nc3ccccc3o2)cc1,MIC,[2],> 64 µg/mL
same,MIC,[3],> 64 µg/mL
same,MIC,[4],> 64 µg/mL
same,MIC,[5],> 64 µg/mL
same,MIC,[6],> 64 µg/mL
same,MIC,[7],> 64 µg/mL
same,MIC,[1],16 µg/mL
same,MIC,[8],> 64 µg/mL
same,MIC,[9],> 64 µg/mL
COc1ccc(/C=C/C(=O)c2ccc(Nc3nc4ccccc4o3)cc2)c(OC)c1,MIC,[2],> 64 µg/mL
same,MIC,[3],> 64 µg/mL
same,MIC,[4],> 64 µg/mL
same,MIC,[5],> 64 µg/mL
same,MIC,[6],> 64 µg/mL
same,MIC,[7],> 64 µg/mL
same,MIC,[1],> 64 µg/mL
same,MIC,[8],> 64 µg/mL
same,MIC,[9],> 64 µg/mL
COc1cc(/C=C/C(=O)c2ccc(Nc3nc4ccccc4o3)cc2)cc(OC)c1OC,MIC,[2],> 64 µg/mL
same,MIC,[3],> 64 µg/mL
same,MIC,[4],> 64 µg/mL
same,MIC,[5],> 64 µg/mL
same,MIC,[6],> 64 µg/mL
same,MIC,[7],> 64 µg/mL
same,MIC,[1],8 µg/mL
same,MIC,[8],> 64 µg/mL
same,MIC,[9],> 64 µg/mL
O=C(/C=C/c1ccccn1)c1ccc(Nc2nc3ccccc3o2)cc1,MIC,[2],> 64 µg/mL
same,MIC,[3],> 64 µg/mL
same,MIC,[4],> 64 µg/mL
same,MIC,[5],> 64 µg/mL
same,MIC,[6],> 64 µg/mL
same,MIC,[7],> 64 µg/mL
same,MIC,[1],4 µg/mL
same,MIC,[8],> 64 µg/mL
same,MIC,[9],> 64 µg/mL
NNC(=O)c1ccncc1 [ISONIAZID],MIC,[1],0.03 µg/mL
COc1ccc(/C=C/C(=O)c2ccc(Nc3nc4ccccc4o3)cc2)cc1,MIC,[2],> 64 µg/mL
same,MIC,[3],> 64 µg/mL
same,MIC,[4],> 64 µg/mL
same,MIC,[5],> 64 µg/mL
same,MIC,[6],> 64 µg/mL
same,MIC,[7],> 64 µg/mL
same,MIC,[1],32 µg/mL
same,MIC,[8],> 64 µg/mL
same,MIC,[9],> 64 µg/mL
COc1cc(/C=C/C(=O)c2ccc(Nc3nc4cc(C)ccc4o3)cc2)cc(OC)c1OC,MIC,[2],> 64 µg/mL
same,MIC,[3],> 64 µg/mL
same,MIC,[4],> 64 µg/mL
same,MIC,[5],> 64 µg/mL
same,MIC,[6],> 64 µg/mL
same,MIC,[7],> 64 µg/mL
same,MIC,[1],16 µg/mL
same,MIC,[8],> 64 µg/mL
same,MIC,[9],> 64 µg/mL
CC(=O)N1N=C(c2ccc3oc(-c4ccc(O)cc4)nc3c2)CC1c1cccs1 (configuration not stated),MIC,[1],0.8 µg/mL
